# Counter-ions that a name gives are not always drawn.
# Test system: A2780 cells
# Assay: In vitro cell proliferation assay (WST-1 assay)
# Type: cell-based
# Conditions: Homo sapiens, total incubation time 72 h, WST-1 viable cell readout
# Protocol: A2780 cells were seeded in 96-well plates at 3×10^3 cells/well in 100 μL of culture medium, 8 wells were left empty for media only controls.
# After 24 h the compound titrations were performed, in a separate dilution plate, by serially diluting the compounds of general formula (I) in culture medium. A 100 μL of each dilution was added to the plated cells, this was done in triplicate, and controls (e.g. DMSO and blanks) were included. The plates were incubated for 24 h at 37° C. in a CO2 incubator. The compound titrations were repeated in a separate dilution plate after 24 h. The media plus compound from the assay plates were then aspirated. A 100 μL of media was then added to all wells, followed by 100 μL of each compound dilution. The plates were incubated for a further 48 h at 37° C. in a CO2 incubator (total incubation time 72 h). The number of viable cells was then assessed using Cell Proliferation Reagent WST-1. 10 μL of WST-1 reagent added to each well and incubated for one to four hours at 37° C. in CO2 incubator. The absorbance was measured (450 nm/690 nm).
# The activity of compounds of general formula (I) in reducing the number of viable cells was calculated as: % activity=[(S^C−B)/(S^O−B)]×100
# S^C denotes signal measured in the presence of test compound, S^O denotes signal detected in the absence of compound, and B denotes background signal, measured in blank wells containing medium only. Analyse data using GraphPad Prism.
row,IC50 [nM],SMILES
1,1.49,"O=C(NCCCCCCC(=O)N(OCCN1CCOCC1)C1CCCCC1)Nc1ccncc1 [Compound 1002, N-Cyclohexyl-N-(2-morpholinoethoxy)-7-(3-pyridin-4-ylureido)heptanamide]"
2,0.34,"O=S(=O)(CCCCCCNC(=S)Nc1ccncc1)N(OCCN1CCOCC1)C1CCCCC1 [Compound 1005, N-Cyclohexyl-N-(2-morpholinethoxy)-6-(3-pyridin-4-ylthioureido)hexane-1-sulfonamide oxalate]"
3,0.33,"O=C(NCCCCCCC(=O)N(OCCN1CCOCC1)C1CCCCC1)NCc1cccnc1 [Compound 1009, N-cyclohexyl-N-(2-morpholinoethoxy)-7-(3-(pyridin-3-ylmethyl)ureido)heptanamide]"
4,14,"O=C(NCCCCCCS(=O)(=O)N1CCCCO1)NCc1cccnc1 [Compound 1018, hydrochloride]"
5,1.34,O=C(NCCCCCCC(=O)N(OCCN1CCOCC1)C1CCCCC1)NCCc1cccnc1 [Compound 1020]
6,14.1,"O=C(NCCCCCCS(=O)(=O)N(CCN1CCOCC1)OCC1CCCCC1)NCCc1cccnc1 [Compound 1032, N-(cyclohexylmethoxy)-N-(2-morpholinoethyl)-6-(3-(2-(pyridin-3-yl)ethyl)ureido)hexane-1-sulfonamide]"
7,6.64,O=C(NCCCCCS(=O)(=O)N(OCCN1CCOCC1)C1CCCCC1)NCc1cccnc1 [Compound 1042]
8,0.37,O=C(NCCCCCCCS(=O)(=O)N(OCCN1CCOCC1)C1CCCCC1)NCc1cccnc1 [Compound 1043]
9,0.6,"CC(C)N(CCCN1CCOCC1)S(=O)(=O)CCCCCCNC(=O)Nc1ccncc1 [Compound 1049, N-Isopropyl-N-(3-morpholinopropyl)-6-(3-pyridin-4-ylureido)hexane-1-sulfonamide]"
10,0.63,"O=C(NCCCCCCS(=O)(=O)N(OCCN1CCOCC1)C1CCCCCC1)NCc1cccnc1 [Compound 1058, N-Cycloheptyl-N-(2-morpholinoethoxy)-6-(3-(pyridin-3-ylmethyl)ureido)hexane-1-sulfonamide]"
11,3.04,"O=C(NCCCCCS(=O)(=O)N(CCCN1CCOCC1)C1CCCC1)NCc1cccnc1 [Compound 1069, N-cyclopentyl-N-(3-morpholinopropyl)-5-(3-(pyridin-3-ylmethyl)ureido)pentane-1-sulfonamide]"
12,1.64,"O=C(NCCCCCCS(=O)(=O)N(OCCN1CCOCC1)C1CCCCC1)NCc1cccnc1 [Compound 1075, N-Cyclohexyl-N-(2-morpholinoethoxy)-6-(3-(pyridin-3-ylmethyl)ureido)hexane-1-sulfonamide oxalate]"
13,0.83,"O=S(=O)(CCCCCCNC(=S)Nc1ccncc1)N(CCCN1CCOCC1)C1CCCCC1 [Compound 1081, N-Cyclohexyl-N-(3-morpholinopropyl)-6-(3-(pyridin-4-ylthioureido)hexane-1-sulfonamide oxalate]"
14,1.36,"O=S(=O)(CCCCCCNC(=S)Nc1ccncc1)N(CCF)OCC1CCCCC1 [Compound 1087, N-(cyclohexylmethoxy)-N-(2-fluoroethyl)-6-(3-pyridin-4-ylthioureido)hexane-1-sulfonamide]"
15,0.13,"O=C(NCCCCCCS(=O)(=O)N(CCF)OCC1CCCCC1)Nc1ccncc1 [Compound 1088, N-(cyclohexylmethoxy)-N-(2-fluoroethyl)-6-(3-pyridin-4-ylureido)hexane-1-sulfonamide]"
16,2.04,"O=C(NCCCCCCS(=O)(=O)N(CCF)OCC1CCCCC1)NCc1cccnc1 [Compound 1089, N-(cyclohexylmethoxy)-N-(2-fluoroethyl)-6-(3-(pyridin-3-ylmethyl)ureido)hexane-1-sulfonamide]"
17,0.1,"O=C(/C=C/c1cccnc1)NCCCCC1CCN(C(=O)c2ccccc2)CC1 [FK866, reference compound]"

# The next lines start with the molecule.
row,SMILES,IC50 [nM]
1,"O=C(NCCCCCCS(=O)(=O)NOCC1CCCCC1)Nc1ccncc1 [Compound 1001, N-(cyclohexylmethoxy)-6-(3-pyridin-4-ylureido)hexane-1-sulfonamide]",13.5
2,"O=C(NCCCCCCS(=O)(=O)N(OCCN1CCOCC1)C1CCCCC1)Nc1ccncc1 [Compound 1008, N-Cyclohexyl-N-(2-morpholinethoxy)-6-(3-pyridin-4-ylureido)hexane-1-sulfonamide oxalate]",0.23
3,"COCCOCCOCCN(OCC1CCCCC1)S(=O)(=O)CCCCCCNC(=O)NCc1cccnc1 [Compound 1013, N-(cyclohexylmethoxy)-N-(2-(2-(2-methoxyethoxy)ethoxy)ethyl)-6-(3-(pyridin-3-ylmethyl)ureido)hexane-1-sulfonamide]",0.11
4,"O=C(CCCCCCNC(=S)NCc1cccnc1)N(OCCN1CCOCC1)C1CCCCC1 [Compound 1015, N-cyclohexyl-N-(2-morpholinoethoxy)-7-(3-(pyridin-3-ylmethyl)thioureido)heptanamide]",0.89
5,"CC(C)N(OCCN1CCOCC1)S(=O)(=O)CCCCCCNC(=O)NCc1cccnc1 [Compound 1022, N-Isopropyl-N-(2-morpholinoethoxy)-6-(3-(pyridin-3-ylmethyl)ureido)hexane-1-sulfonamide]",2.23
6,"O=C(NCCCCCCS(=O)(=O)N(CCCN1CCOCC1)C1CCCCC1)Nc1ccncc1 [Compound 1026, N-Cyclohexyl-N-(3-morpholinopropyl)-6-(3-pyridin-4-ylureido)hexane-1-sulfonamide]",0.23
7,"O=C(NCCCCCCS(=O)(=O)N(CCN1CCOCC1)OCC1CCCCC1)NCc1cccnc1 [Compound 1031, N-(cyclohexylmethoxy)-N-(2-morpholinoethyl)-6-(3-(pyridin-3-ylmethyl)ureido)hexane-1-sulfonamide]",0.13
8,"O=C(NCCCCCCS(=O)(=O)N(OCCN1CCOCC1)C1CCCC1)NCc1cccnc1 [Compound 1056, N-Cyclopentyl-N-(2-morpholinoethoxy)-6-(3-(pyridin-3-ylmethyl)ureido)hexane-1-sulfonamide]",0.58
9,"O=S(=O)(CCCCCCNC(=S)Nc1ccncc1)N(CCCN1CCOCC1)C1CCCC1 [Compound 1064, N-Cyclopentyl-N-(3-morpholinopropyl)-6-(3-pyridin-4-ylthioureido)hexane-1-sulfonamide]",0.55
10,"O=C(NCCCCCCC(=O)N(OCCN1CCOCC1)C1CCCCC1)Nc1cccnc1 [Compound 1065, N-Cyclohexyl-N-(2-morpholinoethoxy)-7-(3-pyridin-3-ylureido)heptanamide]",0.22
11,"O=C(NCCCCCCS(=O)(=O)N(CCCN1CCOCC1)C1CCCC1)Nc1ccncc1 [Compound 1066, N-Cyclopentyl-N-(3-morpholinopropyl)-6-(3-pyridin-4-ylureido)hexane-1-sulfonamide]",0.27
12,"CCOP(=O)(CCCCCCNC(=O)NCc1cccnc1)NC1CCCCC1 (centres unmarked) [Compound 1067, Ethyl N-cyclohexyl-P-(6-(3-pyridin-3-ylmethyl)ureido)phosphonamidate]",0.79
13,CCOP(=O)(CCCCCCNC(=O)NCc1cccnc1)N1CCCCO1 (centres unmarked) [Compound 1072],2.4
14,"O=C(NCCCCCCS(=O)(=O)Nc1ccccc1)NCc1cccnc1 [Compound 1076, N-Phenyl-6-(3-(pyridin-3-ylmethyl)ureido)hexane-1-sulfonamide]",5.4
15,"O=C(NCCCCCCS(=O)(=O)N(CCN1CCOCC1)OCc1ccccc1)NCc1cccnc1 [Compound 1078, N-(Benzyloxy)-N-(2-morpholinoethyl)-6-(3-(pyridin-3-ylmethyl)ureido)hexane-1-sulfonamide]",0.46
16,O=S(=O)(CCCCCCNC(=S)Nc1ccncc1)N(OCCN1CCOCC1)C1CCCC1 [Compound 1082],0.053
17,"O=S(=O)(CCCCCNC(=S)Nc1ccncc1)N(OCCN1CCOCC1)C1CCCC1 [Compound 1083, N-Cyclopentyl-N-(2-morpholinoethoxy)-5-(3-(pyridin-4-ylthioureido)pentane-1-sulfonamide oxalate]",3.92
18,O=C(NCCCCCCS(=O)(=O)N(OCCN1CCOCC1)C1CCCC1)Nc1ccncc1 [Compound 1090],0.15
